Reference: patent publication US20240124483A1, “Methods for the Treatment of Fibrotic Disease” (SHY Therapeutics, LLC, priority 2021, published 2024)
Read-outs that look alike come from different tables or passages of the source.

Tests used:
Rho-A = Rho-A (Homo sapiens (Human), UniProt P61586); assay: Ras GTP Binding Domain Inhibition Assay, Rho-A
Protocol: A Ras Superfamily Activity Assay (as disclosed in International Application No. PCT/US2018/038613, filed Jun. 20, 2018, which is incorporated by reference in its entirety) was used as a specific assay to evaluate compounds against the following for the following Ras Superfamily proteins: KRas wild type, KRas Q61H mutant, KRas G12C mutant, KRas G12D mutant, Rac-1, and Rho-A.
Buffer-I: • 25 mM Tris-HCl, pH 7.4 • 27 mM KCl • 137 mM NaCl • 1 mM MgCl2 • 1 mM DTT
Buffer-II: • 50 mM Tris-HCl, pH 7.0 • 1 mM MgCl2 • 1 mM DTT
The small GTPases proteins: KRas wild type. KRas Q61H mutant, KRas G12C mutant, KRas G12D mutants, Rac-1, and Rho-A were expressed as His-tagged proteins. In addition, the Guanosine nucleotide Exchange Factor (GEF) Sos protein (residues 556-1049) was expressed as a His-tagged protein. In cells, the guanine nucleotide exchange factor Sos protein promotes activation of Ras proteins by stimulating an exchange of GDP for GTP. The inclusion of Sos to the Ras GTP binding domain inhibition assay may be considered as an alternative representation of physiological cellular conditions for evaluating the inhibitory activity of some of the tested small molecules.
For the assay, all purified small GTPases proteins were diluted in Buffer-I or Buffer-II to a final concentration of 10-30 μg/mL. 200 μL of each diluted protein was added to a nickel-coated 96-well plate and incubated overnight at 4° C. Then the protein solution was discarded and 200 μL of Buffer-I or Buffer-II was added to each well in the presence of 1% DMSO. Compounds to be tested were added to the protein-coated wells at final concentration of 20 μM, and incubated for 3 hours at room temperature with and without 10-30 μg/mL of Sos added to the final hour of the incubation. When performing IC50 measurements a serial dilution of all tested concentrations was added. Then Cy3-GTP or Cy5-GTP was added to each well to a final concentration of 100 nM. The labeled GTP was incubated for 45 minutes at room temperature. Following GTP incubation, wells were washed 3× in Buffer-I or Buffer-II and 200 μL of Buffer-I or Buffer-II was added to each well. Following washes, the amount of bound labeled-GTP was measured using a SpectraMax M3 (Molecular Devices).

MAPK p38 = MAPK p38 Activation Assay in Panc-1 (western blot); assay type: cell-based, Human; design: key: Y = yes; N = No; conditions: at 10 μM
Protocol: (§1) Cell lines: Human tumor-derived pancreatic cancer cell line Panc-1 and mouse muscle myoblast C2C12 were purchased from American Type Culture Collection and grown in complete DMEM-High Glucose, supplemented with penicillin (100 U/mL), streptomycin (100 μg/mL), and 10% heat-inactivated FBS at 37° C. in a humidified incubator with 5% CO2.
(§2) Method: Cells were plated at 350000 cells/well density in a 12-well plate, allowed 3 hours to adhere to the plate, then starved in the appropriate medium in the presence of 0.5% FBS overnight. The small molecules to be tested were added to the cells in the final concentration of 10 μM in the presence of 0.3% DMSO for 3 hours incubation at 37° C. For IC50 value determination, serial dilutions of compounds were added to cells under the same conditions. Next, Panc-1 cells were stimulated with 10 ng/ml TGF-b1 for 1 hour, and C2C12 cells were stimulated with 10 ng/ml TGF-b1 for 20 minutes (recombinant human TGF-b1, R&D Systems). After stimulation cells were lysed with lysis buffer containing 1% Triton X-100, EDTA, and Halt™ Protease & Phosphatase Inhibitor Cocktail (Thermo Scientific). Protein concentration was assessed by BCA protein assay (Thermo Scientific). Phosphorylation level of MAPK p38 was determined by western blot.
(§3) Western blot protocol: Equal amounts of protein (15-50 μg) were separated by SDS-PAGE and transferred to nitrocellulose membranes (Invitrogen by Thermo Fisher Scientific). The membrane was stained with Ponceau S Stain (Boston BioProducts) to verify uniform protein loading. Membranes were blocked with 10% milk and phosphorylation levels of Smad2/Smad3 were assessed by incubating overnight at 4° C. with the following antibody: Phospho-p38 MAPK (Thr180/Tyr182), from Cell Signaling Technology. Then the membranes were incubated with HRP-conjugated secondary antibody (Jackson Immunoresearch, West Grove, PA). Bands were incubated in Amersham ECL Prime Western Blotting Detection Reagent (GE Healthcare) and visualized using the ChemiDoc MP imaging system (Bio-Rad).

JNK = JNK Activation Assay in Panc-1 (western blot); assay type: cell-based, Human; design: key: Y = yes; N = No; conditions: at 10 μM
Protocol: as §1
as §2, with “JNK” for “MAPK p38”
as §3, with “Smad2, Smad3, INK and p38” for “Smad2/Smad3”, “Phospho-SAPK/JNK (Thr183/Tyr185),” for “Phospho-p38 MAPK (Thr180/Tyr182),”

[1] = without SOS, read-out: Rho-A: % inh.

Sequence of Rho-A (P61586 whole entry, species assumed, the tested form may be a part): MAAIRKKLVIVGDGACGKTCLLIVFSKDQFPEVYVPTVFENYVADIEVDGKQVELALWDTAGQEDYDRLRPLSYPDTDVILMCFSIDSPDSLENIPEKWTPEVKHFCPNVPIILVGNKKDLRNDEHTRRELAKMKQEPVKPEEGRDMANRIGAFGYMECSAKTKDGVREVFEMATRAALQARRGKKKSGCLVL

| inhibition at 20 µM (Rho-A; [1]) [%] | inhibition at 20 µM (Rho-A; + SOS, read-out: Rho-A + SOS: % inh.) [%] | SMILES | Activation of MAPK p38 in PANC-1 (MAPK p38) | Activation of JNK in PANC-1 (JNK) |
| --- | --- | --- | --- | --- |
| 76 to 100 | – | COCCCOc1nc(-c2nccn2C)nc2sc(-c3ccn(C(C)C)n3)c(C)c12 [Compound 32, 6-(1-Isopropyl-1H-pyrazol-3-yl)-4-(3-methoxypropoxy)-5-methyl-2-(1-methyl-1H-imidazol-2-yl)thieno[2,3-d]pyrimidine] | N | Y |
| 0 | – | COCCCCn1c(-c2nccn2C)nc2sc(-c3ccn(C(C)C)n3)c(C)c2c1=O [Compound 33, 6-(1-Isopropyl-1H-pyrazol-3-yl)-3-(4-methoxybutyl)-5-methyl-2-(1-methyl-1H-imidazol-2-yl)thieno[2,3-d]pyrimidin-4(3H)-one] | N | N |
| 0 | – | COCCOc1nc(-c2nccn2C)nc2sc(-c3ccn(C(C)C)n3)c(C)c12 [Compound 30, 6-(1-Isopropyl-1H-pyrazol-3-yl)-4-(2-methoxyethoxy)-5-methyl-2-(1-methyl-1H-imidazol-2-yl)thieno[2,3-d]pyrimidine] | N | N |
| 46 to 75 | – | COc1cc(-c2sc3nc(-c4nccn4C)nc(N[C@H]4C[C@H](OC)C4)c3c2-c2ccccc2)ccn1 [Compound 46, N-((1r,3r)-3-Methoxycyclobutyl)-6-(2-methoxypyridin-4-yl)-2-(1-methyl-1H-imidazol-2-yl)-5-phenylthieno[2,3-d]pyrimidin-4-amine] | N | Y |
| 26 to 45 | – | COc1cccc(-c2sc3nc(-c4nccn4C)nc(N[C@@H]4CC[C@@H](OC)C4)c3c2C)c1F (racemic) [Compound 43, rac-6-(2-Fluoro-3-methoxyphenyl)-N-((1R,3R)-3-methoxycyclopentyl)-5-methyl-2-(1-methyl-1H-imidazol-2-yl)thieno[2,3-d]pyrimidin-4-amine] | Y | Y |
| 0 | – | COc1cccc(-c2sc3nc(-c4nccn4C)nc(N[C@@H]4CC[C@@H](OC)C4)c3c2-c2ccccc2)c1F (racemic) [Compound 41, 6-(2-Fluoro-3-methoxyphenyl)-N-((1R,3R)-3-methoxycyclopentyl)-2-(1-methyl-1H-imidazol-2-yl)-5-phenylthieno[2,3-d]pyrimidin-4-amine] | Y | Y |

The remaining lines, values behind:

| SMILES | inhibition at 20 µM (Rho-A; [1]) [%] | inhibition at 20 µM (Rho-A; + SOS, read-out: Rho-A + SOS: % inh.) [%] | Activation of MAPK p38 in PANC-1 (MAPK p38) | Activation of JNK in PANC-1 (JNK) |
| --- | --- | --- | --- | --- |
| COc1cccc(-c2sc3nc(-c4nccn4C)nc(NC4CCC(OC)C4)c3c2C)c1F (racemic) [Compound 10, rac-6-(2-Fluoro-3-methoxyphenyl)-N-((1R,3S)-3-methoxycyclopentyl)-5-methyl-2-(1-methyl-1H-imidazol-2-yl)thieno[2,3-d]pyrimidin-4-amine and rac-6-(2-Fluoro-3-methoxyphenyl)-N-((1R,3R)-3-methoxycyclopentyl)-5-methyl-2-(1-methyl-1H-imidazol-2-yl)thieno[2,3-d]pyrimidin-4-amine] | 76 to 100 | 76 to 100 | Y | Y |
| COCCNc1nc(-c2nccn2C)nc2sc(-c3ccccc3)c(-c3ccccc3Cl)c12 [Compound 4, 5-(2-Chlorophenyl)-N-(2-methoxyethyl)-2-(1-methyl-1H-imidazol-2-yl)-6-phenylthieno[2,3-d]pyrimidin-4-amine] | 26 to 45 | – | Y | Y |
| COCCn1c(-c2nccn2C)nc2sc(-c3ccn(C(C)C)n3)c(C)c2c1=O [Compound 29, 6-(1-Isopropyl-1H-pyrazol-3-yl)-3-(2-methoxyethyl)-5-methyl-2-(1-methyl-1H-imidazol-2-yl)thieno[2,3-d]pyrimidin-4(3H)-one] | 76 to 100 | – | Y | Y |
| COCCOCCNc1nc(-c2nccn2C)nc2sc(-c3ccn(C(C)C)n3)c(C)c12 [Compound 21, 6-(1-Isopropyl-1H-pyrazol-3-yl)-N-(2-(2-methoxyethoxy)ethyl)-5-methyl-2-(1-methyl-1H-imidazol-2-yl)thieno[2,3-d]pyrimidin-4-amine] | 76 to 100 | – | Y | Y |
| COCCCCOc1nc(-c2nccn2C)nc2sc(-c3ccn(C(C)C)n3)c(C)c12 [Compound 34, 6-(1-Isopropyl-1H-pyrazol-3-yl)-4-(4-methoxybutoxy)-5-methyl-2-(1-methyl-1H-imidazol-2-yl)thieno[2,3-d]pyrimidine] | 0 | – | N | Y |
| COCC1(OC)CCN(c2nc(-c3nccn3C)nc3sc(-c4ccn(C(C)C)n4)c(C)c23)C1 (racemic) [Compound 27, rac-6-(1-Isopropyl-1H-pyrazol-3-yl)-4-(3-methoxy-3-(methoxymethyl)pyrrolidin-1-yl)-5-methyl-2-(1-methyl-1H-imidazol-2-yl)thieno[2,3-d]pyrimidine] | 46 to 75 | – | Y | Y |
| Cc1c(-c2ccn(C(C)C)n2)sc2nc(-c3nccn3C)nc(NCCN3CCOCC3)c12 [Compound 22, 6-(1-Isopropyl-1H-pyrazol-3-yl)-5-methyl-2-(1-methyl-1H-imidazol-2-yl)-N-(2-morpholinoethyl)thieno[2,3-d]pyrimidin-4-amine] | 76 to 100 | – | Y | Y |
| CO[C@H]1C[C@H](CNc2nc(-c3nccn3C)nc3sc(-c4ccn(C(C)C)n4)c(C)c23)C1 [Compound 16, 6-(1-Isopropyl-1H-pyrazol-3-yl)-N-(((1r,3r)-3-methoxycyclobutyl)methyl)-5-methyl-2-(1-methyl-1H-imidazol-2-yl)thieno[2,3-d]pyrimidin-4-amine] | 46 to 75 | – | Y | Y |
